The record followed here is article PMC10809383, “Synthesis and migrastatic activity of cytochalasin analogues lacking a macrocyclic moiety” (RSC Medicinal Chemistry, 2023).

Entries after “also recorded” stand apart in the source; their conditions may differ.

Assay [1] relates to human melanoma cells (BLM). The experiment in a line: WST-1 viability assay, BLM cells. The format is cell-based. The settings on record: for IC50: Homo sapiens, 72 h treatment, WST-1 assay, 2D culture, 0–50 μM; for selectivity index (SI): MRC-5 versus BLM, 72 h, WST-1. As to the method:
(§1) In addition, the cytotoxic activity of compounds 17, 20, and 22–30 was assessed by the WST-1 viability assay using BLM (human melanoma) and MRC-5 (noncancerous human fibroblasts) cells growing in a monolayer (2D cultures, Table 2) after 72 h of treatment.
(§2) Human cells from melanoma (BLM) and human lung fibroblasts (MRC-5, Merck, USA) were used to evaluate in vitro cytotoxicity of the prepared compounds. The cells were maintained at the exponential phase of growth (passaging done by trypsin–EDTA solution) in DMEM and MEM, for BLM and MRC-5, respectively, with stable L-glutamine and supplemented with 10% fetal bovine serum (Thermo Fisher Scientific, USA). The cells were kept in an incubator at 37 °C, 5% CO2 in the atmosphere, and 95% humidity.
(§3) The compound cytotoxicity was determined by a WST-1 viability assay (Merck, USA). The amount of 5000 BLM and MRC-5 cells were seeded into individual wells of 96-well plates in 100 μL of cell cultivation media and maintained in an incubator for 16 h. After this period, the cells were treated with a concentration series (0–50 μM) of the tested compounds diluted in another 100 μL of cultivation media, which was added to the wells containing cells and incubated for 72 h. Then, BLM and MRC-5 cell viability was evaluated by WST-1 agent (5% v/v solution in phenol red-free DMEM media), i.e., the cell media was discarded and 100 μL of WST-1 solution was added. After 2 h incubation, the absorbance of formazan, derived from the WST-1 tetrazolium salt was determined spectrophotometrically at 450 nm (reference at 650 nm) by a UV-vis spectrophotometer (Bio-Rad, USA). Untreated cells, cells treated only with a vehicle, and cells treated with cytochalasin B (1) and D (2) served as controls. The measurement occurred in three independent repetitions each of which consisted of three technical replicates. The data were plotted as dose–response curves from which the half-maximal inhibitory concentrations (IC50) were calculated using AAT Bioquest.
Background: Tetrazolium dyes change colour on reduction, which living cells bring about.

In assay [2] the test system is human fibroblasts (MRC-5). The experiment in a line: WST-1 viability assay, MRC-5 cells. Type of assay: cell-based. Conditions: MRC5, 72 h treatment, WST-1 assay, 2D culture, 0–50 μM. How it is done: as §1, §2, §3
Assay [3] concerns human melanoma cell line BLM. Description: Spheroid invasion assay (migrastatic activity). Conditions: 24 h; for migrastatic activity (cell migration, in words): 10 μM, BLM spheroid invasion; for rel. spheroid area: 10 µM, BLM spheroids in collagen, DMSO control 1.02. Type of assay: cell-based. How it is done: Compounds 17, 20, and 22–30 were screened for their migrastatic activity using a spheroid invasion assay with the human melanoma cell line BLM.[46] Spheroids were formed and subsequently treated with cytochalasin analogues at a concentration of 10 μM for 24 h. CytB (1) and CytD (2) served as reference compounds for comparison. There was no significant increase in cell migration observed for any of the compounds tested. […] However, the effect was less profound than that of the reference compounds 1 and 2.
The spheroid invasion assay was performed following a previously published protocol.[63] Briefly, BLM cells were grown as spheroids using 3D Petri Dish (Microtissues). After 2 days of spheroid formation, 1.5 mg mL^−1 collagen solution (rat tail, collagen type I) was prepared (1.5 mg mL^−1 rat-tail collagen, 1× DMEM, 1% (v/v) FBS) and added at the bottom of a 96-well plate. Spheroids were embedded into the collagen (one spheroid per well) and covered with another layer of the gel. Collagen was polymerized at 37 °C and subsequently overlaid with a cultivation medium. Images of spheroids were taken with Leica TCS SP2 microscope (5×/0.15 dry objective; LAS X Life Science Microscope software) immediately after their seeding into collagen and again after 24 h. The area of the spheroids at 0 and 24 h was measured using FiJi (Rasband, W.S., ImageJ, NIH, Bethesda, MD, USA). Cellular invasiveness was determined as an increase in spheroid area within 24 h. Three independent experiments were conducted with at least 8 spheroids analysed in each experiment. Statistical analysis was performed in GraphPad using one-way ANOVA. For numeric data and representative images from this assay, see ESI, ^† Table S1 and Fig. S1.
Table S1: Spheroid invasion assay with BLM cell line at 10 µM concentration, 24 h.
Figure S1: Representative images of BLM cell spheroid invasion assay with or without
inhibitor. Images were taken at 0 h and 24 h. using a Leica TCS SP2 microscope (5x/0.15
dry objective). DMSO (first column) was used as a control. Scale bar 500 µm.

A further assay addresses T1, actin (Oryctolagus cuniculus, UniProt P68135).
T1 construct: purchased Cytoskeleton, Inc, Denver, CO
Description: Actin polymerization assay (pyrene-actin, Actin Polymerization Biochem Kit). Type of assay: biochemical. The settings on record: 10 μM, in vitro. As to the method: To further ascertain the compounds' interference with actin polymerization, the active compounds, along with CytB (1) as a positive control and compound 26 as a negative control, were subjected to an in vitro actin polymerization assay (Fig. 2B). […] This correlation between actin inhibitory activity and migrastatic effect underscores the pivotal role of actin polymerization inhibition in mediating the observed migrastatic activity.
Actin polymerization assay was performed using Actin Polymerization Biochem Kit™ (Cytoskeleton, Inc, Denver, CO) according to the manufacturer protocol. Briefly, 25 μL of G-buffer containing labelled pyrene-actin (0.4 mg mL^−1) and 2.48 μL of either DMSO (10 μM, control) or inhibitor (10 μM) was added in […] well plate. Actin polymerization was initiated by the addition of 2.48 μL of 10× actin polymerization buffer and analysed in time until fluorescent signal plateau was reached using a spectrophotometer (Infinite 200 PRO, Tecan Life Sciences, Tecan Group Ltd., Zürich, CHE). The fluorescence emission intensity of actin polymerization was measured at 420 nm and 360 nm was used as excitation wavelength. Statistical analysis was performed in GraphPad using one-way ANOVA. Measurements were performed in three independent repetitions each consisting of at least three technical replicates. For a representative graph from this assay, see ESI, ^† Fig. S2.

Assay [4] concerns HT1080 fibrosarcoma cells. Description: Fluorescence microscopy of actin cytoskeleton (SPY650-FastAct time-lapse). The format is cell-based. Conditions: 10 μM, within 2 min of addition. As to the method:
Next, we conducted experiments to assess the impact of compound 24, CytB (1) and CytD (2) on the actin cytoskeleton using fluorescence microscopy in HT1080 fibrosarcoma cells (Fig. 3). […] Therefore, we increased the concentration up to 50 μM.
HT1080 cells were seeded into 12-well glass bottom plate and stained with SPY650-FastAct™ following manufacturer's protocol. Untreated cells (control) were imaged every 20 s for 15 min using Leica TCS SP2 microscope (40×/0.6 dry objective). Afterwards, an inhibitor (compound 24 at 10 μM; 50 μM or compound 1 and 2 at 10 μM) was added into the same well and its effect was recorded for 15 min (20 s/image). All video recordings were analyzed using FiJi (Rasband, W.S., ImageJ, NIH, Bethesda, MD, USA).

What is called IC50 is the point on the concentration scale where inhibition reaches its midpoint. `COC(=O)[C@@]12C(=O)N[C@@H](Cc3ccccc3)[C@@H]1[C@H](C)C(C)=C[C@@H]2CCCOCc1ccccc1` [Compound 20, Methyl (1S,3aR,4S,7S,7aR)-1-benzyl-4-(3-(benzyloxy)propyl)-6,7-dimethyl-3-oxo-1,2,3,4,7,7a-hexahydro-3aH-isoindole-3a-carboxylate]: in assay [1], it took 28.4 ± 0.59 µM to reach half-maximal inhibition (IC50) and the “selectivity index (SI)” value was found to be 1.0. In assay [2], the concentration for half-maximal inhibition (IC50) came out at 28.6 ± 1.86 µM. Moreover, in assay [3], the “migrastatic activity (cell migration, in words)” value (“migrastatic activity” for short) is “significant decrease in cell migration; also recorded: modest migrastatic activity” and the rel. spheroid area came out at 0.56. Besides, on actin, the “inhibition of actin polymerization (in words)” value is recorded as “inhibit actin polymerization”.

For `COC(=O)[C@@]12C(=O)N[C@@H](Cc3ccccc3)[C@@H]1[C@H](C)[C@@](C)(O)[C@@H](O)[C@@H]2CCOCCc1ccc(OC)cc1` [Compound 23b, Methyl (1S,3aS,4R,5S,6R,7S,7aR)-1-benzyl-5,6-dihydroxy-4-(2-(4-methoxyphenethoxy)ethyl)-6,7-dimethyl-3-oxooctahydro-3aH-isoindole-3a-carboxylate], the half-inhibitory concentration (IC50) in assay [1] and in assay [2] was over 50 µM throughout. The rel. spheroid area in assay [3] came out at 1.10.

For `COC(=O)[C@@]12C(=O)N[C@@H](Cc3ccccc3)[C@@H]1[C@H](C)[C@@](C)(O)[C@@H](O)[C@@H]2CCOCCc1ccc(Br)cc1` [Compound 23h, Methyl (1S,3aS,4R,5S,6R,7S,7aR)-1-benzyl-4-(2-(4-bromophenethoxy)ethyl)-5,6-dihydroxy-6,7-dimethyl-3-oxooctahydro-3aH-isoindole-3a-carboxylate], in assay [1], half-maximal inhibition (IC50) required 23 ± 2.17 µM and the “selectivity index (SI)” value is recorded as over 2.2. The compound further gave an IC50 in assay [2] of over 50 µM. In assay [3], this compound yielded a rel. spheroid area of 0.93.

The compound `COC(=O)[C@@]12C(=O)N[C@@H](Cc3ccccc3)[C@@H]1C(C)=C(C)[C@@H](O)[C@@H]2CCOCCc1ccccc1` [Compound 25, Methyl (1S,3aS,4R,5S,7aR)-1-benzyl-5-hydroxy-6,7-dimethyl-3-oxo-4-(2-phenethoxyethyl)-1,2,3,4,5,7a-hexahydro-3aH-isoindole-3a-carboxylate] gave an IC50 in assay [1] of over 50 µM. The compound also displayed an IC50 in assay [2] of over 50 µM. Moreover, in assay [3], the “migrastatic activity” value is given as “inactivity” and the rel. spheroid area is reported as 1.15.

With `COC(=O)[C@@]12C(=O)N[C@@H](Cc3ccccc3)[C@@H]1[C@H](C)[C@@](C)(Cl)[C@H](O)[C@@H]2CCOCCc1ccccc1` [Compound 26, Methyl (1S,3aS,4R,5R,6R,7S,7aR)-1-benzyl-6-chloro-5-hydroxy-6,7-dimethyl-3-oxo-4-(2-phenethoxyethyl)octahydro-3aH-isoindole-3a-carboxylate], the IC50 in assay [1] and in assay [2] was over 50 µM throughout. In assay [3], this compound returned a rel. spheroid area of 0.88.

`C=C1[C@@H](C)[C@H]2[C@H](Cc3ccccc3)NC(=O)[C@@]2(C(=O)OC)[C@@H](CCOCCc2ccccc2)[C@@H]1OC(C)=O` [Compound 27, Methyl (1S,3aS,4R,5S,7S,7aR)-5-acetoxy-1-benzyl-7-methyl-6-methylene-3-oxo-4-(2-phenethoxyethyl)octahydro-3aH-isoindole-3a-carboxylate]: the half-maximal inhibitory concentration (IC50) in assay [1] was over 50 µM. Moreover, the concentration for half-maximal inhibition (IC50) in assay [2] is over 50 µM. In assay [3], the “migrastatic activity” value is “inactive” and the rel. spheroid area is 0.89.

For `COC(=O)[C@@]12C(=O)N[C@@H](Cc3ccccc3)[C@@H]1C(C)=C(C)[C@@H](OC(C)=O)[C@@H]2CCOCCc1ccccc1` [Compound 28, Methyl (1S,3aS,4R,5S,7aR)-5-acetoxy-1-benzyl-6,7-dimethyl-3-oxo-4-(2-phenethoxyethyl)-1,2,3,4,5,7a-hexahydro-3aH-isoindole-3a-carboxylate], the IC50 in assay [1] and in assay [2] was over 50 µM in each case. In assay [3], the rel. spheroid area was 0.72.

Consider `CC1=C[C@H](CCOCCc2ccccc2)[C@]2(C(=O)O)C(=O)N[C@@H](Cc3ccccc3)[C@@H]2[C@@H]1C` [Compound 29, (1S,3aR,4S,7S,7aR)-1-Benzyl-6,7-dimethyl-3-oxo-4-(2-phenethoxyethyl)-1,2,3,4,7,7a-hexahydro-3aH-isoindole-3a-carboxylic acid], for which the 50% inhibitory concentration (IC50) in assay [1] and in assay [2] was over 50 µM throughout. The same compound had a rel. spheroid area in assay [3] of 1.05.

Turning to `C=C1[C@@H](C)[C@H]2[C@H](Cc3ccccc3)NC(=O)[C@]23OC(=O)/C=C/[C@H](O)CCC[C@@H](C)C/C=C/[C@H]3[C@@H]1O` [CytB (1), cytochalasin B, reference compound], in assay [1], inhibition was half-maximal at 26.2 ± 0.55 µM (IC50) and the “selectivity index (SI)” value came to 0.01. The “effect on the actin cytoskeleton” value in assay [4] is reported as “profound effect on the actin cytoskeleton”. Besides, the concentration for half-maximal inhibition (IC50) in assay [2] is 0.27 ± 0.01 µM. The same compound displayed a rel. spheroid area in assay [3] of 0.26.

Regarding `C=C1[C@@H](C)[C@H]2[C@H](Cc3ccccc3)NC(=O)[C@]23[C@H](OC(C)=O)/C=C/[C@@](C)(O)C(=O)[C@@H](C)C/C=C/[C@H]3[C@@H]1O` [CytD (2), cytochalasin D, reference compound], in assay [1], it took 13.7 ± 1.2 µM to reach half-maximal inhibition (IC50) and the “selectivity index (SI)” value is recorded as 0.17. In addition, the “effect on the actin cytoskeleton” value in assay [4] is on record as “profound effect on the actin cytoskeleton”. The midpoint of inhibition in assay [2], the IC50, lay at 2.36 ± 0.07 µM. The rel. spheroid area in assay [3] is recorded as 0.23.
